Assay results: patent US7179613B2, “Methods of screening for a candidate modulator of glucokinase” (Vanderbilt University, priority 2003, dated 2007)
Residue numbers refer to the chain shown, from its start. Names and notes keep the numbering of the source.

How the values were obtained:
[1] = target: T1, GK association with nNOS (Mus musculus, UniProt P52792); assay type: binding; settings: 1 mM DEANO in PBS, 37° C., 10 min
T1 construct: the inventors immunoprecipitated endogenous GK from cell lysates; endogenous in cells; host or cells: βTC3 cells
T1 sequence (P52792 1-465): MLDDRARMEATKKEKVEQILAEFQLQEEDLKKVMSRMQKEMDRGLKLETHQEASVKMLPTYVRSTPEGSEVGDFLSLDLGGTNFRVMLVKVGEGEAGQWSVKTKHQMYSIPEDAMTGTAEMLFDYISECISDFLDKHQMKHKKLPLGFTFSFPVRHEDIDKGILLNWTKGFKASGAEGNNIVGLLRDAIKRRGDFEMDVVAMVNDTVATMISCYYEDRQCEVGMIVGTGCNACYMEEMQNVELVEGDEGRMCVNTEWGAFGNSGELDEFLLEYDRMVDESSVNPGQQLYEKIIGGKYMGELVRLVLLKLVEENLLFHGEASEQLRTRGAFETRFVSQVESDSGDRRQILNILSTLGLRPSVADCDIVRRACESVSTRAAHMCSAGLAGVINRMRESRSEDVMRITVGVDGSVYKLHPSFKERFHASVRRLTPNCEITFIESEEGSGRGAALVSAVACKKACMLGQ

[2] = tested on: GK association with nNOS; assay type: binding; settings: 1 mM DEANO in PBS, 37° C., 10 min
[3] = tested on: GK; experiment: FRAP of GK-YFP to CFP-labeled insulin granules (GK association with secretory granules); assay type: cell-based; settings: for Insulin-stimulated FRAP of mutant GK-YFP to CFP labeled granules: βTC3 cells, mutant GK-YFP and proinsulin-CFP
Experimental: (§1) Cell culture. βTC3 cells were cultured as described (Rizzo et al., 2002) and were transferred to media containing 1 g/L glucose overnight prior to observation. […] For FRAP, CFP-GK-YFP FRET, and nitrosylation experiments, DNA plasmids containing GK-YFP constructs, proinsulin-CFP, or CFP-GK-YFP were introduced by electroporation prior to seeding as previously described (Rizzo et al., 2002). For studies requiring co-transfection, plasmid DNA encoding the indicated constructs were transfected using either a ratio of (2 μg nNOS-CFP:1 μg GK-YFP:6 μl FUGENE (Roche Applied Science)) or of (1 μg nNOS-CFP-nuc:2 μg GK-YFP:6 μl FUGENE). Transfection was for 4 h in serum-free media, followed by replacement with low-glucose media. Observation took place the following day.
(§2) Microscopy. βTC3 cells were labeled with 5 μM DAF-FM diacetate (Molecular Probes) for 25 min at 25° C. in BSA free BMHH. Observation was with 488 nm excitation and 505–530 nm collection by laser scanning confocal microscopy (Zeiss LSM510). During observation, cells were heated to 32° C. using a Bioptechs Delta T system. FRAP and intramolecular FRET measurements were performed on cultured βTC3 cells as previously described (Rizzo et al., 2002). Statistical significance (p<0.05 by ANOVA or t-test as appropriate) is denoted by * and was determined from at least three granules in the same region or at least three cells for the FRET studies as compared to pre-treatment FRET ratios. Data shown is representative of at least 3 independent trials. Observation of nNOS-CFP-nuc and GK-YFP were performed using the same filter settings as the FRAP measurements. FRET between nNOS-CFP and GK-YFP was observed using 864 nm two-photon excitation along with a KP700/514 main beam splitter and standard CFP and YFP collection using a 40×, 1.3NA F-FLUAR oil immersion objective lens. For the FRET measurements, the temperature was maintained at 37° C. using a Zeiss S-M incubator controlled by the CTI temperature regulator along with humidification and an objective heater.

[4] = tested on: GK; experiment: Intramolecular FRET of CFP-GK-YFP (GK conformation); assay type: cell-based; settings: 5 min; for Insulin-stimulated changes in FRET of mutant CFP-GK-YFP: 100 nM insulin
Experimental: as §1, §2

[5] = tested on: GK; experiment: Detection of S-nitrosylated GK (biotinylation, neutravidin-agarose or immunoprecipitation, Western blot); assay type: cell-based; settings: for Nitrosylated GK in neutravidin precipitates: βTC3 cell lysates, insulin alone or L-NAME in addition to insulin; for S-nitrosylation of mutant GK-YFP: mutant GK-YFP constructs expressed in βTC3 cells
Experimental: Detection of nitrosylated proteins. S-nitrosylated proteins were biotinylated and isolated from cell lysates using the protocol described (Jaffrey et al., 2001). Briefly, cells were lysed in HEN buffer (250 mM Hepes pH7.7, 1 mM EDTA, 0.1 mM neocuproine) using 0.5% triton X-100 and 0.5% Cholate prior to protection of free cysteines with methyl methanethiosulfonate (Pierce) and derivatization of S-nitrosylated cysteines with ascorbic acid and biotin-HPDP (Pierce). Biotinylated proteins were either isolated by binding to neutravidin-agarose (Pierce), followed by 5 washes with a high salt buffer (20 mM Hepes pH 7.7, 600 mM NaCl, 1 mM EDTA and 0.5% Triton X-100) and elution in HNE buffer (20 mM Hepes pH 7.7, 100 mM NaCl, 1 mM EDTA) plus 100 mM 2-mercaptoethanol. Alternatively, GK-YFPs were isolated by immunopreciptation with A.V. Peptide Antibody (BD BioSciences Clontech) preconjugated to IgG agarose (Sigma). Western blots were then performed on eluted proteins to detect GK and nitrosylated proteins.

[6] = tested on: βTC3 cells; experiment: NO production in βTC3 cells loaded with DAF-FM (confocal microscopy); assay type: cell-based; settings: βTC3 cells starved 4 h, 100 nM insulin vs untreated cells
Experimental: as §1
Microscopy. βTC3 cells were labeled with 5 μM DAF-FM diacetate (Molecular Probes) for 25 min at 25° C. in BSA free BMHH. Observation was with 488 nm excitation and 505–530 nm collection by laser scanning confocal microscopy (Zeiss LSM510). During observation, cells were heated to 32° C. using a Bioptechs Delta T system. […] Statistical significance (p<0.05 by ANOVA or t-test as appropriate) is denoted by * and was determined from at least three granules in the same region or at least three cells for the FRET studies as compared to pre-treatment FRET ratios. […]

[7] = tested on: interaction between nNOS and GK; experiment: FRET between nNOS-CFP and GK-YFP in living cells (two-photon microscopy); assay type: cell-based, rat; settings: insulin 100 nM
Experimental: as §1
Generation of constructs. […]
Microscopy. βTC3 cells were labeled with 5 μM DAF-FM diacetate (Molecular Probes) for 25 min at 25° C. in BSA free BMHH. […] Statistical significance (p<0.05 by ANOVA or t-test as appropriate) is denoted by * and was determined from at least three granules in the same region or at least three cells for the FRET studies as compared to pre-treatment FRET ratios. […]

CCN(CC)/[N+]([O-])=N/O.CCNCC [DEANO, diethylamine nitric oxide]
Elution of nNOS from endogenous GK and GK-YFP precipitates [1]: resulted in elution of nNOS | Elution of nNOS from GK(C371S)-YFP precipitates [2]: not from GK(C371S)-YFP precipitates

COC(=O)[C@@H](N)CCCNC(=N)N[N+](=O)[O-] [L-NAME, N^G-nitro-L-arginine-methyl ester, reference compound]
Effect on insulin-stimulated GK-YFP FRAP ([3]; L-NAME 5 mM, 10 min pretreatment, then insulin 100 nM, 5 min): blocked the stimulatory effects of insulin on GK-YFP FRAP | Glucose stimulated activation of GK FRAP and FRET ([3]; treatment with L-NAME, data not shown): sensitive | Effect on insulin-induced decrease of the CFP-GK-YFP FRET ratio ([4]; L-NAME 5 mM, 10 min before insulin 100 nM): prevented the decrease in the FRET ratio | Nitrosylated GK in neutravidin precipitates [5]: not

CC(=O)N[C@H](C(=O)O)C(C)(C)SN=O [SNAP, S-nitroso-N-acetylpenicillamin]
Reversal of NOS inhibition in GK-YFP FRAP ([3]; SNAP 100 μM, 1 min, after L-NAME and insulin): effects of NOS inhibition were reversed

insulin
NO production (fluorescence of DAF-FM) [6]: rapid increase in the fluorescence of DAF-FM | FRET ratio between CFP and YFP on opposing ends of GK ([4]; βTC3 cells, insulin 100 nM): decreases | Nitrosylated GK in neutravidin precipitates [5]: detected | FRET between nNOS-CFP and GK(C371S)-YFP [7]: increased | FRET between nNOS-CFP and GK-YFP [7]: decrease

B1: GK-C371S: glucokinase with cysteine 371 mutated to serine; recombinant His-tagged, or YFP-tagged in cells (protein, UniProt P35557 1-465, looked up, variant C371S)
Hexokinase-4: MLDDRARMEAAKKEKVEQILAEFQLQEEDLKKVMRRMQKEMDRGLRLETHEEASVKMLPTYVRSTPEGSEVGDFLSLDLGGTNFRVMLVKVGEGEEGQWSVKTKHQMYSIPEDAMTGTAEMLFDYISECISDFLDKHQMKHKKLPLGFTFSFPVRHEDIDKGILLNWTKGFKASGAEGNNVVGLLRDAIKRRGDFEMDVVAMVNDTVATMISCYYEDHQCEVGMIVGTGCNACYMEEMQNVELVEGDEGRMCVNTEWGAFGDSGELDEFLLEYDRLVDESSANPGQQLYEKLIGGKYMGELVRLVLLRLVDENLLFHGEASEQLRTRGAFETRFVSQVESDTGDRKQIYNILSTLGLRPSTTDCDIVRRASESVSTRAAHMCSAGLAGVINRMRESRSEDVMRITVGVDGSVYKLHPSFKERFHASVRRLTPSCEITFIESEEGSGRGAALVSAVACKKACMLGQ
modifications: His tag or YFP fusion
notes: glucokinase with cysteine 371 mutated to serine; recombinant His-tagged, or YFP-tagged in cells
Insulin-stimulated FRAP of mutant GK-YFP to CFP labeled granules [3]: stopped insulin-stimulated FRAP | Insulin-stimulated changes in FRET of mutant CFP-GK-YFP ([4]; βTC3 cells): stopped | S-nitrosylation of mutant GK-YFP [5]: eliminated GK nitrosylation

B2: C364S: glucokinase with cysteine 364 mutated to serine, YFP-tagged construct (protein, UniProt P35557 1-465, looked up, variant C364S)
Hexokinase-4: B1 Hexokinase-4 with C364S, S371C
modifications: YFP fusion
notes: glucokinase with cysteine 364 mutated to serine, YFP-tagged construct
Insulin-stimulated FRAP of mutant GK-YFP to CFP labeled granules [3]: did not have a significant effect | Insulin-stimulated changes in FRET of mutant CFP-GK-YFP ([4]; βTC3 cells): did not have a significant effect | S-nitrosylation of mutant GK-YFP [5]: slight decrease in the amount of nitrosylated GK
